Earlier results on three molecules are cited in patent EP3808777A1, “STABLE LIQUID ANTIBODY FORMULATIONS” (Glenmark Specialty S.A., priority 2019, dated 2021).

For the molecule `N[C@@H](Cc1c[nH]cn1)C(=O)O` [L-hisitidine], the effective buffering range (pH range) is 5.5-7.4.
Regarding `N=C(N)NCCC[C@H](N)C(=O)O` [Arginine], the pKa values is 1.82.
For the molecule `NCCCC[C@H](N)C(=O)O` [Lysine], the pKa values was 9.06.
